MIC, IC50 and Activity data for 18 compounds are collected here from ChEMBL document CHEMBL6127075, “Tetrazoles: A multi-potent motif in drug design” (Eur J Med Chem, 2024).

In general, MIC refers to the lowest concentration that inhibits growth of the organism. Usually IC50 stands for the concentration that gives 50% inhibition.

In assay [1] the test system is Escherichia coli. The assay is described as follows: Antibacterial activity against Escherichia coli ATCC 25922 assessed as reduction in microbial growth by incubated for 18 hrs CLSI based broth microdilution method. In kind it is functional. (Broth dilution looks for growth in wells or tubes with falling amounts of substance.)
Assay [2] concerns Staphylococcus epidermidis. The assay is described as follows: Antibacterial activity against Staphylococcus epidermidis ATCC 12228 assessed as reduction in microbial growth by incubated for 18 hrs CLSI based broth microdilution method. The assay is classed as functional.
Assay [3] deals with Escherichia coli. The assay is described as follows: Antimicrobial activity against Escherichia coli NCTC 8196 assessed as reduction in microbial growth measured fro 18 hrs by two-fold serial dilution method. In kind it is functional.
Assay [4] can be described thus: Antioxidant activity assessed as DPPH radical scavenging activity after 30 mins by spectrophotometric analysis. In kind it is functional. (In general: Loss of DPPH colour is used to gauge radical scavenging.)
Assay [5] deals with Staphylococcus aureus. The assay is described as follows: Antibacterial activity against Staphylococcus aureus MTCC-96 assessed as bacterial growth inhibition after 24 hrs by broth macro dilution method. The assay is classed as functional.
In assay [6] the test system is Escherichia coli. The assay is described as follows: Antibacterial activity against Escherichia coli assessed as bacterial growth inhibition after 24 hrs by broth macro dilution method. The assay is classed as functional.
Assay [7] relates to Staphylococcus aureus. The assay is described as follows: Antibacterial activity against Staphylococcus aureus MTCC-739 assessed as bacterial growth inhibition after 24 hrs by broth macro dilution method. In kind it is functional.
The test system of assay [8] is Pseudomonas aeruginosa. The assay is described as follows: Antibacterial activity against Pseudomonas aeruginosa assessed as bacterial growth inhibition after 24 hrs by broth macro dilution method. The assay is classed as functional.
Assay [9] relates to Micrococcus luteus. The assay is described as follows: Antibacterial activity against Micrococcus luteus assessed as bacterial growth inhibition after 24 hrs by broth macro dilution method. In kind it is functional.
For assay [10], the system named is Staphylococcus epidermidis. The assay is described as follows: Antibacterial activity against Staphylococcus epidermidis ATCC 12228 assessed as bacterial growth inhibition incubated for 24 hrs by broth dilution method. In kind it is functional.
In assay [11] the test system is Escherichia coli. The assay is described as follows: Antibacterial activity against Escherichia coli ATCC 25922 assessed as bacterial growth inhibition incubated for 24 hrs by broth dilution method. In kind it is functional.
In assay [12] the test system is Pseudomonas aeruginosa. The assay is described as follows: Antimicrobial activity against Pseudomonas aeruginosa ATCC 27853 assessed as inhibition of microbial growth incubated for 24 hrs by broth microdilution method. In kind it is functional.
Assay [13] concerns Staphylococcus aureus. The assay is described as follows: Antibacterial activity against Staphylococcus aureus ATCC 29213 assessed as bacterial growth inhibition incubated for 24 hrs by broth dilution method. The assay is classed as functional.
Assay [14] relates to HepG2. The assay is described as follows: Cytotoxicity against human HepG2 cells assessed as reduction in cell viability incubated for 24 hrs by MTT assay. In kind it is functional, cell-based. Conditions: HepG2, 24 h.
Assay [15] has as its system MCF7. The assay is described as follows: Cytotoxicity against human MCF7 cells assessed as reduction in cell viability incubated for 24 hrs by MTT assay. In kind it is functional, cell-based. The note with it: MCF7, 24 h. (In general: Tetrazolium assays rely on reduction of a dye to a coloured formazan, in cell work by metabolically active cells.)
For assay [16], the system named is MCF7. The assay is described as follows: Cytotoxicity against human MCF7 cells assessed as reduction in cell growth at 25 uM incubated for 48 hrs by MTT assay relative to control. In kind it is functional. The arrangement: scale not given: the % may be the effect or the level left.
In assay [17] the test system is CCRF-CEM. The assay is described as follows: Cytotoxicity against human CCRF-CEM cells assessed as reduction in cell growth at 25 uM incubated for 48 hrs by MTT assay relative to control. In kind it is functional. Also noted: scale not given: the % may be the effect or the level left.
Assay [18] deals with Staphylococcus aureus. The assay is described as follows: Antibacterial activity against Staphylococcus aureus assessed as reduction in microbial growth by CLSI based broth microdilution method. In kind it is functional.
Assay [19] deals with HUVEC. The assay is described as follows: Antiproliferative activity against HUVEC cells assessed as inhibition of cell proliferation incubated for 72 hrs by Cell Titer Luminescence assay. The assay is classed as functional, cell-based. Conditions: Homo sapiens.
Assay [20] deals with PC-3. The assay is described as follows: Cytotoxicity against human PC-3 cells assessed as reduction in cell growth incubated for 24 hrs by MTT assay. In kind it is functional, cell-based. Conditions: PC-3, 24 h.
For assay [21], the system named is Pichia kudriavzevii. The assay is described as follows: Antifungal activity against Candida krusei ATCC 6258 assessed as inhibition of fungal growth incubated for 24 hrs by microtiter plate reader assay. In kind it is functional.

Values after ≈ are worked out from the molar mass of the structure shown.

Turning to `Cc1ccc(-n2nnnc2NCc2ccco2)cc1Cl`, the MIC in [1], in assay [2] and in assay [3] was 2 µg/mL throughout.

Regarding `Cc1cn(C2OC(CO)CC2n2nnnc2-c2cccnc2Cl)c(=O)[nH]c1=O` (configuration not stated), the IC50 in assay [4] amounted to 25.87 µg/mL (≈ 63.8 µM).

For the compound `Cn1ncc2cc(-n3cc(CSc4nnnn4-c4ccc(F)cc4F)nn3)ccc21`, the MIC in assay [5], in [6], in [7], in [8] and in [9] was 5 µg/mL (≈ 11.8 µM) each time.

Consider `CC1=C(C)C2(C)CC1(C)C1C(=O)N(Nc3nnnn3-c3cccc(C(F)(F)F)c3)C(=O)C12` (configuration not stated), for which the MIC in [10] was found to be 0.4 µg/mL (≈ 0.896 µM); in [11] it was 0.4 µg/mL (≈ 0.896 µM); in [12], 0.4 µg/mL; in [13], 0.4 µg/mL (≈ 0.896 µM).

Turning to `O=S(=O)(c1ccccc1)n1nnc(CCSc2cc3ccccc3[nH]2)n1`, the IC50 in assay [4] worked out at 27.63 µg/mL (≈ 71.7 µM).

With `Clc1ccc(-c2nn[se]c2-n2nnc(-c3ccccc3)n2)cc1`, the 50% inhibitory concentration (IC50) in [14] and in assay [15] was 43.2 µM in each case.

Regarding `Fc1ccc(-n2nnnc2NCc2ccco2)cc1Cl`, the MIC in assay [1], in assay [2] and in assay [3] was 2 µg/mL each time.

Consider `Cn1ncc2cc(-n3cc(CSc4nnnn4-c4cccc(O)c4)nn3)ccc21`, for which the MIC in [5], in assay [6], in assay [7], in assay [8] and in assay [9] was 5 µg/mL (≈ 12.3 µM) throughout.

For `Clc1ccccc1-c1nnnn1CCCn1cnc2c(Br)c(Br)c(Br)c(Br)c21`, the Activity in assay [16] and in assay [17] was under 1% in each case.

With `CC1=C(C)C2(C)CC1(C)C1C(=O)N(Nc3nnnn3-c3ccccc3Br)C(=O)C12` (configuration not stated), the MIC in assay [10] was 0.4 µg/mL (≈ 0.875 µM); in [11], 0.4 µg/mL (≈ 0.875 µM); in assay [12], 0.4 µg/mL; in assay [13] it was 0.4 µg/mL (≈ 0.875 µM); in [18], 0.1 µg/mL.

For `CCC(C)n1ncn(-c2ccc(N3CCN(c4ccc(OC[C@@H]5CO[C@@](Cn6ncnn6)(c6ccc(Cl)cc6Cl)O5)cc4)CC3)cc2)c1=O` (some centres not stated), the IC50 in assay [19] worked out at 0.073 µM.

For the compound `CC1=C(C)C2(C)CC1(C)C1C(=O)N(Nc3nnnn3-c3ccccc3Cl)C(=O)C12` (configuration not stated), the MIC was determined as 0.4 µg/mL (≈ 0.969 µM) in [10], 0.4 µg/mL (≈ 0.969 µM) in [11], 0.4 µg/mL in assay [12] and 0.4 µg/mL (≈ 0.969 µM) in assay [13].

Consider `O=C(O)Cn1nnc(-c2cn(-c3ccccc3)nc2-c2ccc(Cl)cc2)n1`, for which the IC50 in [20] is 6.43 µM.

Consider `Clc1ccc(-c2nnn(-c3[se]nnc3-c3ccc(Cl)cc3)n2)cc1`, for which the IC50 in assay [14] and in [15] was 43.2 µM in each case.

Consider `Clc1ncccc1-c1nnn[nH]1`, for which, in assay [4], the half-maximal inhibitory concentration (IC50) worked out at 27.63 µg/mL (≈ 152 µM).

On to `Cn1ncc2cc(-n3cc(CSc4nnnn4-c4cccc(F)c4)nn3)ccc21`, for which the minimum inhibitory concentration (MIC) in assay [5], in [6], in assay [7], in assay [8] and in assay [9] was 5 µg/mL (≈ 12.3 µM) in each case.

`COc1cccc2c1C(=O)c1c(O)c3c(c(O)c1C2=O)C[C@@](O)(C(=O)CO)C[C@@H]3O[C@H]1C[C@H](N)[C@H](O)[C@H](C)O1` [DOXORUBICIN]: in assay [20], the IC50 came to 2.24 µM.

Take `C[C@@H](c1ncncc1F)[C@](O)(Cn1cncn1)c1ccc(F)cc1F` [VORICONAZOLE]: in assay [21], the MIC was 3.9 µg/mL (≈ 11.2 µM).
